From ChEMBL document CHEMBL1909046, “DrugMatrix in vitro pharmacology data”

How the values were obtained:
[1] = DRUGMATRIX: Glutamate, Kainate radioligand binding (ligand: [3H] Kainic acid); type: cell membranes, Rattus norvegicus, Wistar, Brain, Membrane; settings: Not Active = under 50% inhibition at 10 µM
[2] = DRUGMATRIX: Interleukin IL-1 radioligand binding (ligand: [125I] interleukin 1beta); type: cell membranes, Membrane; settings: nih3t3; Not Active = under 50% inhibition at 10 µM
Cytochrome P450 2C19 = Cytochrome P450 2C19 (Homo sapiens, UniProt P33261); settings: bti-tn-5b1-4; also: in other assays of this panel Not Active means under 50% inhibition at 10 µM
Cytochrome P450 2C9 = Cytochrome P450 2C9 (Homo sapiens, UniProt P11712); settings: bti-tn-5b1-4; also: in other assays of this panel Not Active means under 50% inhibition at 10 µM
Progesterone receptor = molecular target: T1, Progesterone receptor (Bos taurus, UniProt Q690N0); experiment: DRUGMATRIX: Progesterone radioligand binding (ligand: [3H] R-5020); type: tissue-based, Uterus; settings: Not Active = under 50% inhibition at 10 µM; for Ki: read-out: Ki
T1 sequence (Q690N0 whole entry): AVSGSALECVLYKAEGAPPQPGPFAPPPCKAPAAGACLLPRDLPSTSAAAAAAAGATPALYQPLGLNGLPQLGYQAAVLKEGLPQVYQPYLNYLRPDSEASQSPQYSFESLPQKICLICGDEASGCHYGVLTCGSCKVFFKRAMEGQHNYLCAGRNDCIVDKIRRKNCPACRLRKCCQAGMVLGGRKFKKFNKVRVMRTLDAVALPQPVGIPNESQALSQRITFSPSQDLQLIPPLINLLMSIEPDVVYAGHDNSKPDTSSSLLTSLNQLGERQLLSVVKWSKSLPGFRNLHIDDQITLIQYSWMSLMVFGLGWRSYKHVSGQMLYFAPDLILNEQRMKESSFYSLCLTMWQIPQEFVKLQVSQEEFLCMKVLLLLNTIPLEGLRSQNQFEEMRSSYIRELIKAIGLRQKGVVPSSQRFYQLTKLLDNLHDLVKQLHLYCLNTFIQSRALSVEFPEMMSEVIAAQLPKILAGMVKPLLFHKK

[3] = molecular target: T2, Alpha-1A adrenergic receptor (Rattus norvegicus, UniProt P43140); experiment: DRUGMATRIX: Alpha-1A adrenergic receptor radioligand binding (ligand: prazosin); type: cell membranes, Wistar, Submaxillary gland, Membrane; settings: Not Active = under 50% inhibition at 10 µM
T2 sequence (P43140 whole entry): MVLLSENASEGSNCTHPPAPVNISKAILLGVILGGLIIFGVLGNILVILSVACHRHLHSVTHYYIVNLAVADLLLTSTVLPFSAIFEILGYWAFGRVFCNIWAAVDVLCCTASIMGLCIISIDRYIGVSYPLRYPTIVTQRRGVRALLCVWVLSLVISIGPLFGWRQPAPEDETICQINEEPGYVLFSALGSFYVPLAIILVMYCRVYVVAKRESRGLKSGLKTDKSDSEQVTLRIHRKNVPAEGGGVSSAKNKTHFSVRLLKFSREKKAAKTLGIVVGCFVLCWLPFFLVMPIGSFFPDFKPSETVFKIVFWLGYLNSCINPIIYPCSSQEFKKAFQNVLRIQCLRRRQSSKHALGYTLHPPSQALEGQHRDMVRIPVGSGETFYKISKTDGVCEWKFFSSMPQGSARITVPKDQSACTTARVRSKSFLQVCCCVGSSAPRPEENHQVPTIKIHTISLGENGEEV

Interstitial collagenase = molecular target: T3, Interstitial collagenase (Homo sapiens, UniProt P03956); experiment: biochemical; type: tissue-based, Rheumatoid synovial fibroblasts;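 also: MMP-1 enzyme inhibition assay using a peptide substrate; in other assays of this panel Not Active means under 50% inhibition at 10 µM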
T3 sequence (P03956 whole entry): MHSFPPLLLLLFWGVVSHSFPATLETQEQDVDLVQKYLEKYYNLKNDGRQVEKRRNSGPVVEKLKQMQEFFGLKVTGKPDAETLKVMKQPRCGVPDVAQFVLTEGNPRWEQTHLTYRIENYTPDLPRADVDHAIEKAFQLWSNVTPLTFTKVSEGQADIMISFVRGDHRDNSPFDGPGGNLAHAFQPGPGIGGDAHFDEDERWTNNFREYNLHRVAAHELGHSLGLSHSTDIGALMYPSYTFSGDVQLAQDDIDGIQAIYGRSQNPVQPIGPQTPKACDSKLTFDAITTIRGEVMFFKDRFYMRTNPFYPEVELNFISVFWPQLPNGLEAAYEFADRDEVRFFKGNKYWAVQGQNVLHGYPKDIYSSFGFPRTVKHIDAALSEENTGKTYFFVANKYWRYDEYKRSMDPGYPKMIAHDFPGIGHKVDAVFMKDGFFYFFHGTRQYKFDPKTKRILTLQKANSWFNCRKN

[4] = DRUGMATRIX: Potassium Channel [KATP] radioligand binding (ligand: [3H] Glyburide); type: cell membranes, Membrane; settings: hit-t15, Not Active = under 50% inhibition at 10 µM

Cytochrome P450 2C9, sequence (P11712 whole entry): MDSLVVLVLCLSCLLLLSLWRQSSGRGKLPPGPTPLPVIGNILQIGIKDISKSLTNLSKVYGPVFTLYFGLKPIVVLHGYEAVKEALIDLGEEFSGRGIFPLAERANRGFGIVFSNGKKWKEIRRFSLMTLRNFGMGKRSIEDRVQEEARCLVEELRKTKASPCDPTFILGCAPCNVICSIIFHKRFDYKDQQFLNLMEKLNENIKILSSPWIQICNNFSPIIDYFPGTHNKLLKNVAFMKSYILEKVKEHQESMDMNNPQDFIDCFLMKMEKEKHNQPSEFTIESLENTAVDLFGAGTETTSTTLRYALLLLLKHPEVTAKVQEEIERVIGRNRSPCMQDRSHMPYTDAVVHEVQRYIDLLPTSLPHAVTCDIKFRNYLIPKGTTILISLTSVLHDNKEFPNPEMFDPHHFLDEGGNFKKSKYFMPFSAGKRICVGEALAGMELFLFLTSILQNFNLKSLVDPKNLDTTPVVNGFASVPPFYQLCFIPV
Cytochrome P450 2C19, sequence (P33261 whole entry): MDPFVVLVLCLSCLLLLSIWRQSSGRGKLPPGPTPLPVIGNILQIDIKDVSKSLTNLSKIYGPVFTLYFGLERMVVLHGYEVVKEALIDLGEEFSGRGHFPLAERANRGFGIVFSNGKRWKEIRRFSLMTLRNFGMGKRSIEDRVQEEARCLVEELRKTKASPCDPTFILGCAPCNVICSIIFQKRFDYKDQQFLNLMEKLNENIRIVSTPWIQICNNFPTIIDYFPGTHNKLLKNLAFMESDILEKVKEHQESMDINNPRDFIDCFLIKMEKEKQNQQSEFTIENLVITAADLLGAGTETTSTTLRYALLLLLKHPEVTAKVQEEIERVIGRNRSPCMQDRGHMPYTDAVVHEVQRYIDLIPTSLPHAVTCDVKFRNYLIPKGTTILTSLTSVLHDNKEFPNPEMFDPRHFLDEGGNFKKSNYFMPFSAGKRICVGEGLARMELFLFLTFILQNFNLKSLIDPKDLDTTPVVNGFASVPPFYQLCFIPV

SMILES | IC50 [1] | Ki [1] | IC50 [2] | Ki [2] | IC50 (Cytochrome P450 2C19) | Ki (Cytochrome P450 2C19) | IC50 (Cytochrome P450 2C9) | Ki (Cytochrome P450 2C9) | IC50 (Progesterone receptor) | IC50 [3] | IC50 (Interstitial collagenase) | IC50 [4] | Ki [4] | IC50 ([4]; read-out: IC50) | Ki ([4]; read-out: Ki) | IC50 (Progesterone receptor; read-out: IC50) | Ki (Progesterone receptor)
O=C1c2ccccc2C(=O)C1c1ccccc1 [PHENINDIONE] | Not Active | Not Active | Not Active | Not Active | Not Active | Not Active | Not Active | Not Active | Not Active | Not Active | Not Active | Not Active | Not Active |  |  |  | 
Clc1cc(Cl)c(OCC#CI)cc1Cl [HALOPROGIN] | Not Active | Not Active | Not Active | Not Active | Not Active | Not Active | Not Active | Not Active | Not Active | Not Active | Not Active | Not Active | Not Active |  |  |  | 
C[C@H]1C[C@H]2[C@@H]3CCC4=CC(=O)C=C[C@]4(C)[C@@]3(F)[C@@H](O)C[C@]2(C)[C@@]1(O)C(=O)CO [BETAMETHASONE] | Not Active | Not Active | Not Active | Not Active |  |  |  |  | Not Active | Not Active | Not Active | Not Active | Not Active |  |  |  | 
COc1ccc(Cl)cc1C(=O)NCCc1ccc(S(=O)(=O)NC(=O)NC2CCCCC2)cc1 [GLYBURIDE] | Not Active | Not Active | Not Active | Not Active | Not Active | Not Active |  |  | Not Active | Not Active | Not Active |  |  | 3.8 nM | 0.432 nM |  | 
CC1(COc2ccc(CC3SC(=O)NC3=O)cc2)CCCCC1 (configuration not stated) [CIGLITAZONE] | Not Active | Not Active | Not Active | Not Active |  |  | Not Active | Not Active |  | Not Active | Not Active | Not Active | Not Active |  |  | 29100 nM | 3800 nM
Cc1ccnc2c1NC(=O)c1cccnc1N2C1CC1 [NEVIRAPINE] | Not Active | Not Active | Not Active | Not Active | Not Active | Not Active | Not Active | Not Active | Not Active | Not Active | Not Active | Not Active | Not Active |  |  |  | 
CNC[C@H](O)c1ccc(O)c(O)c1 [EPINEPHRINE] | Not Active | Not Active | Not Active | Not Active | Not Active | Not Active | Not Active | Not Active | Not Active |  | Not Active | Not Active | Not Active |  |  |  | 
NC(N)=Nc1nc(CSCCC(N)=NS(N)(=O)=O)cs1 [FAMOTIDINE] | Not Active | Not Active | Not Active | Not Active | Not Active | Not Active | Not Active | Not Active | Not Active | Not Active | Not Active |  |  |  |  |  | 
CN(CCOc1ccc(C[C@H](Nc2ccccc2C(=O)c2ccccc2)C(=O)O)cc1)c1ccccn1 | Not Active | Not Active | Not Active | Not Active | Not Active | Not Active |  |  |  | Not Active | Not Active | Not Active | Not Active |  |  | 30600 nM | 3990 nM
COc1ccccc1OCCNCC(O)COc1cccc2[nH]c3ccccc3c12 (configuration not stated) [CARVEDILOL] | Not Active | Not Active | Not Active | Not Active | Not Active | Not Active | Not Active | Not Active | Not Active |  | Not Active | Not Active | Not Active |  |  |  | 
O=C(O)CNCP(=O)(O)O [GLYPHOSATE] | Not Active | Not Active | Not Active | Not Active |  |  |  |  | Not Active | Not Active | Not Active | Not Active | Not Active |  |  |  | 
CC(C)NCC(O)COc1ccc(CC(N)=O)cc1 (configuration not stated) [ATENOLOL] | Not Active | Not Active | Not Active | Not Active |  |  |  |  | Not Active | Not Active | Not Active | Not Active | Not Active |  |  |  | 
CCN(CCO)CCCC(C)Nc1ccnc2cc(Cl)ccc12 (configuration not stated) [HYDROXYCHLOROQUINE] | Not Active | Not Active | Not Active | Not Active |  |  |  |  | Not Active | Not Active | Not Active | Not Active | Not Active |  |  |  | 
CC[C@H]1OC(=O)[C@H](C)[C@@H](O[C@H]2C[C@@](C)(OC)[C@@H](O)[C@H](C)O2)[C@H](C)[C@@H](O[C@@H]2O[C@H](C)C[C@H](N(C)C)[C@H]2O)[C@](C)(O)C[C@@H](C)C(=O)[C@H](C)[C@@H](O)[C@]1(C)O [ERYTHROMYCIN] | Not Active | Not Active | Not Active | Not Active | Not Active | Not Active |  |  | Not Active | Not Active | Not Active | Not Active | Not Active |  |  |  | 
NS(=O)(=O)c1cc(C(=O)O)c(NCc2ccco2)cc1Cl [FUROSEMIDE] | Not Active | Not Active | Not Active | Not Active |  |  |  |  | Not Active | Not Active | Not Active | Not Active | Not Active |  |  |  | 
COc1cc([C@@H]2c3cc4c(cc3[C@H](O)[C@H]3COC(=O)[C@H]23)OCO4)cc(OC)c1OC [PODOFILOX] | Not Active | Not Active | Not Active | Not Active |  |  |  |  | Not Active | Not Active | Not Active | Not Active | Not Active |  |  |  | 
C#C[C@]1(O)CC[C@H]2[C@@H]3CCC4=CC(=O)CC[C@@H]4[C@H]3CC[C@@]21C [NORETHINDRONE] | Not Active | Not Active | Not Active | Not Active | Not Active | Not Active |  |  |  | Not Active | Not Active | Not Active | Not Active |  |  | 9.34 nM | 1.22 nM
CC(CN1c2ccccc2Sc2ccccc21)N(C)C (configuration not stated) [PROMETHAZINE] | Not Active | Not Active | Not Active | Not Active | Not Active | Not Active | Not Active | Not Active | Not Active |  | Not Active | Not Active | Not Active |  |  |  | 
Cc1cc(C(C)(C)C)c(O)c(C)c1CC1=NCCN1 [OXYMETAZOLINE] | Not Active | Not Active | Not Active | Not Active | Not Active | Not Active | Not Active | Not Active | Not Active |  | Not Active | Not Active | Not Active |  |  |  | 
Oc1ccccc1 [PHENOL] | Not Active | Not Active | Not Active | Not Active | Not Active | Not Active | Not Active | Not Active |  | Not Active | Not Active | Not Active | Not Active |  |  |  | 
